According to publication PMC12914960, “Repurposing a detrimental antibody epitope as targeted therapeutics for sepsis and rheumatoid arthritis” (Military Medical Research, 2026):
“And” between values parts separate entries of the source, which are not always exact repeats. Equal values may be shown once. Where a SMILES comes first, the peptide text is derived from it.

How the values were obtained:
Water solubility = type: physicochemical; conditions: qualitative, text in Fig. 1d
Recombinant human HMGB1 = target: T1, Recombinant human HMGB1 (Homo sapiens, UniProt P09429); experiment: SPR binding to immobilized HMGB1 (OpenSPR); conditions: 1:1 model
T1 construct: made in house; host or cells: E. coli BL21 (DE3) pLysS (given for the rat HMGB1 preparation)
T1 sequence (P09429 whole entry, looked up): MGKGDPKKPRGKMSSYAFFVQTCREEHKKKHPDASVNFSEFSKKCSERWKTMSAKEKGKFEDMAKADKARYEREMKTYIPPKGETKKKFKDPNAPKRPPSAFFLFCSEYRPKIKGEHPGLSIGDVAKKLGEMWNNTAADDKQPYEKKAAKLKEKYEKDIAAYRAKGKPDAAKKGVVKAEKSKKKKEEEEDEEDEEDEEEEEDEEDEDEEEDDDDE
Protocol: Binding kinetics between HMGB1 and P2-1 were measured via Nicoya Life Science gold nanoparticle-based OpenSPR technology (Kitchener, ON, Canada) as previously described. Recombinant human HMGB1 was immobilized onto a carboxyl sensor chip, and the P2-1 peptide was flowed over the immobilized HMGB1 at various concentrations in HEPES-buffered saline with poloxamer (HBS-P buffer, GE Healthcare, Chicago, IL, USA). The response units were recorded over time, and binding affinity was estimated as the equilibrium dissociation constant KD using Trace Drawer Kinetic Data Analysis v.1.6.1 (Nicoya Life Science). Given the 1:1 stoichiometry of the HMGB1-P2-1 interaction predicted by ClusPro protein-protein docking (Additional file 1: Fig. S2), we applied a 1:1 interaction algorithm to determine the association rate constant (ka), dissociation rate constant (kd), and equilibrium dissociation constant (KD) from three independent experiments (n = 3 technical replicates). […]
interaction between high mobility group box 1 (HMGB1) and P2- 1. SPR plots showing the interaction between immobilized HMGB1 and different concentrations of the P2- 1 analyte. Experimental binding responses (blue, purple, and yellow traces) are shown with their corresponding global fits (black curves) via a 1:1 interaction model. The associated table summarizes the globally fitted kinetic parameters, including the maximum b inding capacity (Bmax), association rat e constant (ka), dissociation rat e con stant (kd), and other goodness-of-fit metrics (Chi2). The relatively low Chi2 value indicated a good fit bet ween
(1 picture or pasted object on this page, not shown here)

[1] = tested on: Differentiated human macrophages; experiment: HMGB1-induced macrophage death, trypan blue uptake; type: cell-based; conditions: 16 h; for Trypan blue uptake: individual replicates
Protocol: (§1) Human macrophage differentiation and treatment
Human PBMCs were differentiated into macrophages by culturing in human macrophage colony-stimulating factor (M-CSF, 20 ng/ml) for 5 – 6 d. Differentiated macrophages were maintained in Dulbecco’s modified Eagle’s medium supplemented with 1% penicillin/streptomycin and 10% human serum. Upon reaching 70 – 80% conflu ence, adh erent cells were wash ed and switched to Opti-MEM I before stimulation with recombinant HMGB1 (0.5 µg/ml) with or without P2- 1 (5.0 or 10 µg/ml) for 16 […]
(§2) Cell viability was assessed via the tryp an blue excl usion and lactat e dehyd ro genase (LDH) release method as previously described . For trypan blue exclusion, random phase-contr ast images were captur ed , and the percentage of nonviable, trypan blue-stained cells was calculated. LDH release in the culture medium was quantified with an LDH Ass ay Kit (Cat. #L7572, Pointe Scientific Inc., Canton, MI, USA) according to the manufacturer ’s instructions. Optical density was measured at 340 nm, and LDH content was expressed as a per centag e of maximal release in the presence of 2% Triton X-100. The experiments were performed 5 – 7 times ( n= 5 –7 biological replicates). […]

[2] = tested on: Differentiated human macrophages; experiment: Cellular uptake of Alexa Fluor 555-labeled HMGB1 by differentiated macrophages; type: cell-based; conditions: P2-1 10 µg/ml, HMGB1 0.5 µg/ml, 2 h, 37 °C
Protocol: plots and heatmaps were generat ed via ggplot2 and pheatmap packages in R, respectively. Genes with an adjusted P -value < 0.05 and a |log2 fold change| > 1 were considered differentially expressed.
as §1
Human PBMCs were differentiated into macrophages by culturing in human macrophage colony-stimulating factor (M-CSF, 20 ng/ml) for 5 – 6 d. Differentiated macrophages were maintained in Dulbecco’s modified Eagle’s medium supplemented with 1% penicillin/streptomycin and 10% human serum. […]
as §2, with “X-100.” for “X-100. The experiments were performed 5 – 7 times ( n= 5 –7 biological replicates).”
#H-1200, Vector Laborat ories, Inc., Newark, CA, USA) for nuclear counterstaining. Endocytic uptake of Alexa Fluor 555- labeled HMGB1 (red) was visualized via the Olympus IX51 inverted fluorescence & phase contrast tissue culture microscope. […]

## CCCC[C@H](NC(=O)[C@H](Cc1c[nH]cn1)NC(=O)[C@@H](NC(=O)[C@H](CCCCN)NC(=O)[C@@H](N)[C@@H](C)O)C(C)C)C(=O)N[C@@H](CCCCN)C(=O)N[C@@H](CO)C(=O)N[C@@H](Cc1ccccc1)C(=O)N[C@@H](CC(C)C)C(=O)N[C@@H](C)C(=O)N[C@@H](Cc1ccccc1)C(=O)N[C@@H](CCC(N)=O)C(=O)N[C@H](C(=O)N[C@@H](CCCCN)C(=O)N[C@H](C(=O)O)[C@@H](C)O)[C@@H](C)O [P2-1] (HELM PEPTIDE1{T.K.V.H.[Nle].K.S.F.L.A.F.Q.T.K.T}$$$$V2.0; N-terminus and C-terminus assumed)
Water solubility
  Water solubility: Good water solubility
Recombinant human HMGB1; Exp 1
  KD: 14.8 nM
Recombinant human HMGB1; Exp 2
  KD: 33.5 nM
Recombinant human HMGB1; Exp 3
  KD: 2.3 nM
[1]; HMGB1 0.5 µg/ml + P2-1 5.0 μg/ml
  Trypan blue uptake: 4.1% and 2.7% and 4.8% and 2.3% and 0.9% and 2.4%
[1]; HMGB1 0.5 µg/ml + P2-1 10.0 μg/ml
  Trypan blue uptake: 2.9% and 0.8% and 3.8% and 1.1% and 4.2% and 3.6% and 2.4%
[1]; trypan blue uptake and LDH release, HMGB1 0.5 µg/ml, P2-1 5.0 or 10 µg/ml
  HMGB1-induced macrophage death, in words: significantly inhibited HMGB1-induced macrophage death
[2]
  HMGB1 cellular uptake, in words: markedly reduced Alexa Fluor 555-HMGB1 uptake
